Data: patent US20220009920A1 (GB005, Inc., priority 2020, published 2022)

Experiments:
BTK in RAMOS B cells = assay: Assay to determine BTK activity in RAMOS B cells (anti-IgM, FLIPR Calcium 6); format: cell-based; details: anti-IgM EC80, calcium readout
BTK = target: T1, BTK (Homo sapiens, UniProt Q06187); assay: Assay to determine activity against BTK; format: biochemical; details: 1 mM ATP, 2 nM BTK, 90 minutes at room temperature
T1 construct: purchased Cama
Outline: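 Recombinant BTK (2 nM) was assayed with 1.5 µM FL-peptide and 1 mM ATP in pH 7.5 HEPES buffer with MgCl2, DTT, BSA and EGTA, for 90 min at room temperature before an EDTA stop. Peptide conversion ratio was read by mobility-shift, and IC50 came from 11-point 3-fold dilution curves.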

[1] = Plasma and total brain concentrations at 1 h post single oral administration to female C57BL/6 mice; format: in vivo; details: mouse, 10 mg/kg oral gavage; for Kp at 1 h: brain/plasma, read-out: brain to plasma ratio
Protocol: (§1) The appropriate amount of test article was dissolved 10% dimethylacetamide (DMA)/90% (20% hydroxypropyl-β-cyclodextrin (HP-B-CD) w/v in water to obtain a final concentration of 1 mg/mL for oral dosing. Sonication, vortex, and homogenization was used as needed. Three female C57BL/6 mice aged 7-9 weeks (20-30 grams) were dosed by oral gavage 10 mg/kg solution of the test article.
Concentrations of test compounds in the plasma and brain samples (use plasma and brain homogenate standard curve for all samples appropriately) were analyzed using LC-MS/MS. Compounds having a brain-to-plasma ratio of greater than 0.2 were considered brain penetrant.

[2] = Plasma and total brain concentrations at 1 h post single oral administration to male Wistar Han rats; format: in vivo; details: rat, 10 mg/kg oral gavage; for Kp at 1 h: brain/plasma, read-out: brain to plasma ratio
Protocol: as §1, with “male Wistar Han rats” for “female C57BL/6 mice”, “6-8” for “7-9”, “(200-300” for “(20-30”
At 1 h, blood and whole brains were collected. Blood was collected via cardiac puncture into tubes containing potassium EDTA and kept on ice until plasma collection. Plasma was obtained via centrifugation at 4000×g for five minutes at 4° C. Following exsanguination, animals were transcardially perfused with approximately 20 mL of saline, and brains were collected and immediately frozen. Plasma and brains were at −75±15° C. until analysis.
The desired serial concentrations of working solutions were achieved by diluting stock solution of analyte with 50% acetonitrile in water solution. 5 μL of working solutions (2, 5, 10, 50, 100, 500, 1000, 5000, 10000 ng/mL) were added to 50 μL of the male blank Wistar Han rats plasma, brain homogenate to achieve calibration standards of 0.2˜1000 ng/mL (0.2, 0.5, 1, 5, 10, 50, 100, 500, 1000 ng/mL) in a total volume of 55 μL. Four quality control samples at 0.5 ng/mL, 1 ng/mL, 50 ng/mL and 800 ng/mL for plasma, brain homogenate were prepared independently of those used for the calibration curves. These QC samples were prepared on the day of analysis in the same way as calibration standards.
55 μL of standards, 55 μL of QC samples and 55 μL of unknown samples (50 μL of plasma, brain homogenate with 5 μL of blank solution) were added to 200 μL of acetonitrile containing IS mixture for precipitating protein respectively. Then the samples were vortexed for 30 s. After centrifugation at 4° C., 4700 rpm for 15 min, the supernatant was diluted 3 times with water. 10 μL of diluted supernatant was injected into the LC/MS/MS system for quantitative analysis.

[3] = plasma, read-out: Mean [plasma]

T1 sequence (Q06187 whole entry): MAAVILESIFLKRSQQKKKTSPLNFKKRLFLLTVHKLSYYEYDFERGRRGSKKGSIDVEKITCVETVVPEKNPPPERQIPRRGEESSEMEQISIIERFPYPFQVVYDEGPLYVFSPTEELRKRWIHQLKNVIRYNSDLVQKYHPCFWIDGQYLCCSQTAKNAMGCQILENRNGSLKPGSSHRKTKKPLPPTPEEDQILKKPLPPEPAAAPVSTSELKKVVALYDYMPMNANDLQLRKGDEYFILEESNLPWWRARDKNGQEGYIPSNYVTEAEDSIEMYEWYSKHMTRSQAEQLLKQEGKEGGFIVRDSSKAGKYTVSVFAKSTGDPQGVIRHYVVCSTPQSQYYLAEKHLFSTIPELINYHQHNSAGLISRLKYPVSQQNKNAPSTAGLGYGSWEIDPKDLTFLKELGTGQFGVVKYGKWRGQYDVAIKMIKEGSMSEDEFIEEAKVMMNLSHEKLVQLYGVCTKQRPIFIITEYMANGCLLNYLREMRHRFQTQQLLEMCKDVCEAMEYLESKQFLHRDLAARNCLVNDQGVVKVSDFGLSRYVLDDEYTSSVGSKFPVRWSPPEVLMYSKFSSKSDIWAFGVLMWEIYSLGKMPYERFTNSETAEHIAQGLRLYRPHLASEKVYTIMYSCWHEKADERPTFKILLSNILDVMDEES

SMILES: C=CC(=O)N1CCCC(c2c(F)cc(C(N)=O)c3[nH]c4c(c23)CCCCC4)C1 (single isomer, unassigned) [Compound 5-6]
- IC50 (BTK in RAMOS B cells): < 10 nM
- IC50 (BTK): < 10 nM
- concentration at 1 h ([1]; brain, read-out: Mean [brain]): 16 ng/g
- Kp at 1 h [1]: 0.4
- concentration at 1 h [1, 3]: 42 ng/mL
- concentration at 1 h ([2]; brain, read-out: Mean [brain]): 84 ng/mL
- Kp at 1 h [2]: 0.43
- concentration at 1 h [2, 3]: 196 ng/mL

SMILES: C=CC(=O)N1CCC[C@@H](c2c(F)cc(C(N)=O)c3[nH]c4c(c23)CC2(CC4)CC2)C1 [Compound 6-2, (S)-5-(1-acryloylpiperidin-3-yl)-6-fluoro-1,2,4,9-tetrahydrospiro[carbazole-3,1′-cyclopropane]-8-carboxamide]
- IC50 (BTK in RAMOS B cells; Homo sapiens, Ramos): < 10 nM
- IC50 (BTK): < 10 nM
- concentration at 1 h ([1]; brain, read-out: Mean [brain]): 18 ng/g
- Kp at 1 h [1]: 0.24
- concentration at 1 h [1, 3]: 78 ng/mL
- concentration at 1 h ([2]; brain, read-out: Mean [brain]): 108 ng/mL
- Kp at 1 h [2]: 0.28
- concentration at 1 h [2, 3]: 395 ng/mL

SMILES: C=CC(=O)N1CCC[C@@H](c2c(F)cc(C(N)=O)c3[nH]c4c(c23)CCC4)C1 [Compound 10-2, (S)-8-(1-acryloylpiperidin-3-yl)-7-fluoro-1,2,3,4-tetrahydrocyclo-penta[b]indole-5-carboxamide]
- IC50 (BTK in RAMOS B cells; Homo sapiens, Ramos): < 10 nM
- IC50 (BTK): < 10 nM
- concentration at 1 h ([1]; brain, read-out: Mean [brain]): 72 ng/g
- Kp at 1 h [1]: 0.37
- concentration at 1 h [1, 3]: 191 ng/mL
- concentration at 1 h ([2]; brain, read-out: Mean [brain]): 116 ng/mL
- Kp at 1 h [2]: 0.29
- concentration at 1 h [2, 3]: 421 ng/mL
